According to ChEMBL document CHEMBL4680185, “Discovery of novel cyclin-dependent kinase (CDK) and histone deacetylase (HDAC) dual inhibitors with potent in vitro and in vivo anticancer activity” (Eur J Med Chem, 2020):

What follows are compounds tested on HCT-116 (assay: cells). Settings: Homo sapiens, time 72 hrs, read-out: GI.
Type: functional

Compound | inhibition of growth at 8 µM [%]
O=C(CCCCCCNC(=O)c1n[nH]cc1NC(=O)c1c(Cl)cccc1Cl)NO | 20.1
Nc1ccccc1NC(=O)c1ccc(CNC(=O)c2n[nH]cc2NC(=O)c2ccccc2Cl)cc1 | 84.4
COc1ccccc1C(=O)Nc1c[nH]nc1C(=O)Nc1ccc(CC(=O)NO)cc1 | 24.5
O=C(Cc1ccc(NC(=O)c2n[nH]cc2NC(=O)c2ccccc2Cl)cc1)NO | 4.52
O=C(NO)c1ccc(CNC(=O)c2n[nH]cc2NC(=O)c2ccccc2)cc1 | 61.7
Nc1ccccc1NC(=O)Cc1ccc(NC(=O)c2n[nH]cc2NC(=O)c2ccccc2)cc1 | 69.2
O=C(CCCCNC(=O)c1n[nH]cc1NC(=O)c1c(F)cccc1F)NO | 14.9
O=C(Cc1ccc(NC(=O)c2n[nH]cc2NC(=O)c2ccccc2F)cc1)NO | 14.3
COc1ccccc1C(=O)Nc1c[nH]nc1C(=O)Nc1ccc(CC(=O)Nc2ccccc2N)cc1 | 30.5
O=C(Cc1ccc(NC(=O)c2n[nH]cc2NC(=O)c2ccccc2)cc1)NO | 14.2
O=C(CCCCCNC(=O)c1n[nH]cc1NC(=O)c1c(F)cccc1F)NO | 59.4
O=C(CCCNC(=O)c1n[nH]cc1NC(=O)c1c(F)cccc1F)NO | 6.54
O=C(NO)c1ccc(CNC(=O)c2n[nH]cc2NC(=O)c2c(F)cccc2Cl)cc1 | 59.3
O=C(CCCCCCNC(=O)c1n[nH]cc1NC(=O)c1c(F)cccc1Cl)NO | 15.7
COc1ccccc1C(=O)Nc1c[nH]nc1C(=O)NCc1ccc(C(=O)NO)cc1 | 68.8

These compounds were tested on NCI-H460 (assay: cells). Settings: Homo sapiens, time 72 hrs, read-out: GI.
Type: functional

Compound | inhibition of growth at 8 µM [%]
O=C(CCCCCCNC(=O)c1n[nH]cc1NC(=O)c1c(Cl)cccc1Cl)NO | 17.9
Nc1ccccc1NC(=O)c1ccc(CNC(=O)c2n[nH]cc2NC(=O)c2ccccc2Cl)cc1 | 17.4
COc1ccccc1C(=O)Nc1c[nH]nc1C(=O)Nc1ccc(CC(=O)NO)cc1 | 24.2
O=C(Cc1ccc(NC(=O)c2n[nH]cc2NC(=O)c2ccccc2Cl)cc1)NO | 26.6
O=C(NO)c1ccc(CNC(=O)c2n[nH]cc2NC(=O)c2ccccc2)cc1 | 31.6
Nc1ccccc1NC(=O)Cc1ccc(NC(=O)c2n[nH]cc2NC(=O)c2ccccc2)cc1 | 8.93
O=C(CCCCNC(=O)c1n[nH]cc1NC(=O)c1c(F)cccc1F)NO | 15.8
O=C(Cc1ccc(NC(=O)c2n[nH]cc2NC(=O)c2ccccc2F)cc1)NO | 21.4
COc1ccccc1C(=O)Nc1c[nH]nc1C(=O)Nc1ccc(CC(=O)Nc2ccccc2N)cc1 | 26.8
O=C(Cc1ccc(NC(=O)c2n[nH]cc2NC(=O)c2ccccc2)cc1)NO | 23.1
O=C(CCCCCNC(=O)c1n[nH]cc1NC(=O)c1c(F)cccc1F)NO | 28.8
O=C(CCCNC(=O)c1n[nH]cc1NC(=O)c1c(F)cccc1F)NO | 25.3
O=C(NO)c1ccc(CNC(=O)c2n[nH]cc2NC(=O)c2c(F)cccc2Cl)cc1 | 27.7
O=C(CCCCCCNC(=O)c1n[nH]cc1NC(=O)c1c(F)cccc1Cl)NO | 28.7
COc1ccccc1C(=O)Nc1c[nH]nc1C(=O)NCc1ccc(C(=O)NO)cc1 | 45.6

Each compound was assayed on HCT-116 (assay: cells). Settings: Homo sapiens, HCT-116, 72 h.
Type: functional, cell-based
Description: Antiproliferative activity against human HCT116 cells assessed as inhibition of cell growth incubated for 72 hrs by CCK-8 assay

Compound | IC50 [µM]
Nc1ccccc1NC(=O)c1ccc(CNC(=O)c2n[nH]cc2NC(=O)c2ccccc2Cl)cc1 | 0.9

The compounds below were run on NCI-H460 (assay: cells). Settings: Homo sapiens, NCI-H460, 72 h.
Type: functional, cell-based
Description: Antiproliferative activity against human H460 cells assessed as inhibition of cell growth incubated for 72 hrs by CCK-8 assay

Compound | IC50 [µM]
Nc1ccccc1NC(=O)c1ccc(CNC(=O)c2n[nH]cc2NC(=O)c2ccccc2Cl)cc1 | 6.36

These compounds were tested on A-375 (assay: cells). Settings: Homo sapiens, A-375, 72 h.
Type: functional, cell-based
Description: Antiproliferative activity against human A375 cells assessed as inhibition of cell growth incubated for 72 hrs by CCK-8 assay

Compound | IC50 [µM]
Nc1ccccc1NC(=O)c1ccc(CNC(=O)c2n[nH]cc2NC(=O)c2ccccc2Cl)cc1 | 2.11

Each compound was assayed on HeLa (assay: cells). Settings: Homo sapiens, 72 h.
Type: functional, cell-based
Description: Antiproliferative activity against human Hela cells assessed as inhibition of cell growth incubated for 72 hrs by CCK-8 assay

Compound | IC50 [µM]
Nc1ccccc1NC(=O)c1ccc(CNC(=O)c2n[nH]cc2NC(=O)c2ccccc2Cl)cc1 | 10.5

What follows are compounds tested on SMMC-7721 (assay: cells). Settings: Homo sapiens, SMMC-7721, 72 h.
Type: functional, cell-based
Description: Antiproliferative activity against human SMMC7721 cells assessed as inhibition of cell growth incubated for 72 hrs by CCK-8 assay

Compound | IC50 [µM]
Nc1ccccc1NC(=O)c1ccc(CNC(=O)c2n[nH]cc2NC(=O)c2ccccc2Cl)cc1 | 12.9

Tested on: HCT-116
Assay: cells
Type: functional
Settings: Homo sapiens, time 72 hrs, read-out: GI
Remark: another data set of the same source

Compound | inhibition of growth at 2 µM [%]
O=C(CCCCCCNC(=O)c1n[nH]cc1NC(=O)c1c(Cl)cccc1Cl)NO | 1.07
Nc1ccccc1NC(=O)c1ccc(CNC(=O)c2n[nH]cc2NC(=O)c2ccccc2Cl)cc1 | 63.7
COc1ccccc1C(=O)Nc1c[nH]nc1C(=O)Nc1ccc(CC(=O)NO)cc1 | 9.38
O=C(Cc1ccc(NC(=O)c2n[nH]cc2NC(=O)c2ccccc2Cl)cc1)NO | 0.84
O=C(NO)c1ccc(CNC(=O)c2n[nH]cc2NC(=O)c2ccccc2)cc1 | 29.4
Nc1ccccc1NC(=O)Cc1ccc(NC(=O)c2n[nH]cc2NC(=O)c2ccccc2)cc1 | 60
O=C(CCCCNC(=O)c1n[nH]cc1NC(=O)c1c(F)cccc1F)NO | 5.76
O=C(Cc1ccc(NC(=O)c2n[nH]cc2NC(=O)c2ccccc2F)cc1)NO | 1.04
COc1ccccc1C(=O)Nc1c[nH]nc1C(=O)Nc1ccc(CC(=O)Nc2ccccc2N)cc1 | 13.6
O=C(Cc1ccc(NC(=O)c2n[nH]cc2NC(=O)c2ccccc2)cc1)NO | 9.56
O=C(CCCCCNC(=O)c1n[nH]cc1NC(=O)c1c(F)cccc1F)NO | 4.87
O=C(CCCNC(=O)c1n[nH]cc1NC(=O)c1c(F)cccc1F)NO | 0.91
O=C(CCCCCCNC(=O)c1n[nH]cc1NC(=O)c1c(F)cccc1Cl)NO | 10
COc1ccccc1C(=O)Nc1c[nH]nc1C(=O)NCc1ccc(C(=O)NO)cc1 | 43.8

Tested on: NCI-H460
Assay: cells
Type: functional
Settings: Homo sapiens, time 72 hrs, read-out: GI
Remark: another data set of the same source

Compound | inhibition of growth at 2 µM [%]
O=C(CCCCCCNC(=O)c1n[nH]cc1NC(=O)c1c(Cl)cccc1Cl)NO | 17
Nc1ccccc1NC(=O)c1ccc(CNC(=O)c2n[nH]cc2NC(=O)c2ccccc2Cl)cc1 | 5.54
COc1ccccc1C(=O)Nc1c[nH]nc1C(=O)Nc1ccc(CC(=O)NO)cc1 | 1.58
O=C(Cc1ccc(NC(=O)c2n[nH]cc2NC(=O)c2ccccc2Cl)cc1)NO | 9.04
O=C(NO)c1ccc(CNC(=O)c2n[nH]cc2NC(=O)c2ccccc2)cc1 | 12
Nc1ccccc1NC(=O)Cc1ccc(NC(=O)c2n[nH]cc2NC(=O)c2ccccc2)cc1 | 0.37
O=C(CCCCNC(=O)c1n[nH]cc1NC(=O)c1c(F)cccc1F)NO | 0.4
O=C(Cc1ccc(NC(=O)c2n[nH]cc2NC(=O)c2ccccc2F)cc1)NO | 9.5
COc1ccccc1C(=O)Nc1c[nH]nc1C(=O)Nc1ccc(CC(=O)Nc2ccccc2N)cc1 | 3.12
O=C(Cc1ccc(NC(=O)c2n[nH]cc2NC(=O)c2ccccc2)cc1)NO | 11.8
O=C(CCCCCNC(=O)c1n[nH]cc1NC(=O)c1c(F)cccc1F)NO | 22.9
O=C(CCCNC(=O)c1n[nH]cc1NC(=O)c1c(F)cccc1F)NO | 13
O=C(CCCCCCNC(=O)c1n[nH]cc1NC(=O)c1c(F)cccc1Cl)NO | 0.88
COc1ccccc1C(=O)Nc1c[nH]nc1C(=O)NCc1ccc(C(=O)NO)cc1 | 16
